Laboratory results taken from patent US20110009332A1, “Therapeutic Treatment Of Wounds” (SOUTHWEST RESEARCH INSTITUTE, priority 2009, published 2011).
Where a SMILES comes first, the peptide text is derived from it. The star is where a group is joined. Cbz = O=C(OCc1ccccc1)*; OtBu = CC(C)(C)O*

Test system: BMP-2
Assay: BMP-2 gene expression (qPCR, normalized over 18S) in human dermal fibroblasts
Assay type: cell-based
Experimental: An examination of gene expression of BMP-2 was conducted using a number of proteasome inhibitors including, proteasome inhibitor-1, curcumin, MG-132 and bortezomib. Human neonatal dermal fibroblasts (AllCells, Catalog No. HN006001) were maintained in Dulbecco's modified Eagle's medium (DMEM) supplemented with 10% fetal bovine serum. Early passage cells were plated at 2×10^4 cells/cm^2 and grown in humidified 5% CO2 at 37° C. for 24 hours. Spent media was replaced the following day with assay media including Proteasome inhibitor-1 was added in DMEM at 1 μM and 0.1 μM. Untreated cells were used as the control group. For the human osteogenesis PCR array, the experimental group was treated only at 1 μM.
Phenol-chloroform extraction was performed to isolate the total RNA for real time polymerase chain reaction array. More specifically, the total RNA was prepared using TRI REAGENT (Ambion, product number 9738), wherein the total RNA was obtained from the human neonatal dermal fibroblasts. Note that isolation was performed as per the instructions provided with the TRI REAGENT. The RNA was used for subsequent quantitative polymerase chain reaction (qPRC) gene expression of BMP-2 measured using hydrolysis probes (TAQMAN probes available from Applied Biosystems) as described further below.
Concentration and integrity of the obtained total RNA was assessed by absorbance in a spectrophotometer at 260 nm and 280 nm and by electrophoresis in 1% agarose with formaldehyde loading dye. For TAQMAN gene expression assays, cDNA was synthesized from 2 μg of total RNA using the High Capacity cDNA Reverse Transcription Kit (Applied Biosystems, product number 4368814), again following the protocol supplied with the kit. The resulting cDNA was diluted 1:10.
For TAQMAN gene expression, gene-specific fluorescent labeled TAQMAN primers for FAM-BMP2 (Applied Biosystems, product number Hs00154192.m1) and TAQMAN reference VIC-18S ribosomal RNA (Applied Biosystems, product number 4310893E) were used to target the gene of interest. A cocktail of universal master mix (Applied Biosystems, product number 4369016) was prepared individually for both set of primers which contained Taq Polymerase, dNTPs, and buffer. Template cDNA's were added separately to respective individual wells in triplicate samples. PCR was performed on StepOne Plus Real Time System instrument (Applied Biosystems). The amplification program consisted of 1 cycle of 95° C. with 10 minute hold (hot start) followed by 50 cycles of 95° C. with 15 second annealing hold and 1 minute 60° C. specified acquisition hold.
For human osteogenisis PCR array, total RNA was prepared using silica matrix purification using RNEASY MINI KIT (Qiagen, product number 74101) according to the manufacturer's recommendations. cDNA was synthesized from 1 μg of purified DNA-free RNA accordingly to RT^2First Strand Kit (SABiosciences, C-03). The resulting cDNA was diluted 1:30 and amplified. The procedure for the PCR array using real-time PCR is based on the RT^2 Profiler PCR array system instructions for Human Osteogenesis (SABiosciences, product number PAHS-026C). A cocktail reaction mix was setup as recommended by the PCR manufacturer (SABiosceiences, product number PA-012). PCR was performed using the same temperature parameters as used with the StepOne Plus Real Time System instrument. The Ct value of endogenous reference gene (i.e. 18s) was used to control for input RNA and then used to normalize target gene (i.e. BMP-2) tested from the same cDNA sample (Δ Ct), and then calibrated to an internal reference sample (ΔΔCt). Change in gene expression was determined by the expression 2̂-(ΔΔCt).
In addition, as alluded to above a similar methodology using 10 μmM and 100 μM of curcumin, 0.1 μM and 1 μM of bortezomib, and 0.1 μM and 1 μM of MG-132 proteasome inhibitors was performed.

[1] = 0.1 μM inhibitor, FIG. 24, non-treated approximately 1.50
[2] = 1 μM inhibitor, FIG. 24, non-treated approximately 1.50

Compound | BMP-2/18S mRNA levels [1] [a.u.] | BMP-2/18S mRNA levels [2] | also measured
CC[C@H](C)[C@H](NC(=O)OCc1ccccc1)C(=O)N[C@@H](CCC(=O)OC(C)(C)C)C(=O)N[C@@H](C)C(=O)N[C@H](C=O)CC(C)C [PS-1, Z-Ile-Glu(OBu^t)-Ala-Leu-H] (Cbz-IE(OtBu)AL-aldehyde) | – | – | BMP-2/18S mRNA levels (0.1 μm PS-1, FIG. 22, non-treated control approximately 1.38): 9.01 au; BMP-2/18S mRNA levels (1.0 μm PS-1, FIG. 22, non-treated control approximately 1.38): 12.5 au
COc1cc(/C=C/C(=O)CC(=O)/C=C/c2ccc(O)c(OC)c2)ccc1O [curcumin] | – | – | BMP-2/18S mRNA levels (10 μM curcumin, FIG. 23, non-treated approximately 1.38): 2.87 a.u.; BMP-2/18S mRNA levels (100 μM curcumin, FIG. 23, non-treated approximately 1.38): 0.903 a.u.
CC(C)C[C@@H](C=O)NC(=O)[C@H](CC(C)C)NC(=O)[C@H](CC(C)C)NC(=O)OCc1ccccc1 [MG132] (Cbz-Leu-Leu-Leu-aldehyde) | 5.95 | approximately 9.51 a.u. | –
CC(C)C[C@H](NC(=O)[C@H](Cc1ccccc1)NC(=O)c1cnccn1)B(O)O [bortezomib] | 6.55 | 9.68 a.u. | –
